# Experiments:
# Format in all cases: in vivo
# [1] = test system: C57BL/6 DIO mice; test: Nestlet shredding test in C57BL/6 DIO mice; conditions: Belaronib 0.3 mg/kg SC, Celastrol 0.2 mg/kg IP daily, mean
# Description: C57BL/6 mice were treated with test compound (Celastrol) or controls as shown in the table below from Day 1 to Day 15. […] One mouse was excluded from the study because it appeared resistant to nestlet shredding prior to treatment.
# Male C57BL/6 DIO mice were obtained from Jackson Labs (Bar Harbor, ME). The mice arrived at ages 17 weeks and mice were housed 3 per cage on arrival. Prior to dosing in the study, the mice were singly housed.
# All treatment volumes were 10 mL/kg. Utilizing the art-recognized nestlet shredding mouse model, […]. Celastrol and the vehicle control were administered intraperitoneally using a 30G needle. Beloranib was administered subcutaneously using a 30G needle. All treatments were administered daily in the afternoon at 17:00 h, 1 hour before dark cycle from Day 1 to end of dosing.
# Celastrol was dissolved in a pharmaceutically-acceptable excipient, e.g., 50% Solutol/50% DMAC, and this stock solution aliquoted and stored at −80° C. until treatment day. On the day of treatment, an aliquot of the stock solution was thawed and diluted […] with saline to obtain the desired dosing solution strength in 5% Solutol/5% dimethylacetamide/90% saline. The vehicle control was 5% Solutol/5% dimethylacetamide/90% saline. Beloranib was dissolved in 100% DMSO, and this stock solution was aliquoted and stored at −80° C. until treatment day. On the day of treatment, an aliquot of the stock solution was thawed and diluted 1:10 with deionized (DI) water to obtain the desired dosing solution strength in 10% DMSO.
# The nestlet shredding test is an art-recognized animal model for human repetitive, anxiety, and/or compulsive behaviors. In the nestlet shredding test, a nestlet comprised of pulped fiber, e.g., cotton fiber, is preweighed and placed on top of cage bedding and the amount of the nestlet remaining intact after a test session of pre-determined time is evaluated.
# Nestlet shredding was determined on day 1, day 6, day 11 and day 15 by placing a fresh nestlet prior to the dark cycle and measuring the weight of the remaining nestlet at 12 and 24 hours on an Ohaus model CS 200 balance. Percent shredding was calculated based on the initial nestlet weight.
# [2] = test system: C57BL/6-Magel2 mice; test: Body weights of C57BL/6 Magel2 mice during daily treatment; conditions: 0.2 mg/kg IP QD; for Body weights (expressed as a percentage of day-1 weight) / Body weights (in grams): mean; for body weight lost from day 1 to day 21: vehicle +2.7%
# Description: (§1) In the study disclosed herein, celastrol at was administered intraperitoneally using a 30G needle at a dose of 0.2 mg/kg to five female Magel2 homozygous mice (−/−) and four male mice heterozygous for Magel2 (−/+). In addition, vehicle was administered to four male mice heterozygous for Magel2 (−/+) for 21 days.
# (§2) C57BL/6-Magel2 mice were bred for purpose from cryo recovery by Jackson Labs (Bar Harbor, ME) and arrived at the testing facility at age 8 weeks.
# (§3) All treatment volumes were 10 mL/kg. Utilizing the art-recognized nestlet shredding mouse model, the dose was administered by gavage (as capsule dosing is challenging in mice). Celastrol and the vehicle control were administered intraperitoneally using a 30G needle. All treatments were administered daily in the afternoon at 17:00 h, 1 hour before dark cycle from Day 1 to end of dosing.
# (§4) Celastrol was dissolved in 50% Solutol/50% DMAC. The resulting stock solution aliquoted and stored at −80° C. until treatment day. On the day of treatment an aliquot of the stock solution was thawed and diluted 1:20 with saline to obtain the desired dosing solution strength in 5%
# Mouse body weights were recorded from an Ohaus model CS 200 balance. Mice were weighed daily on Day 1 to Day 21. Body weight changes are expressed as grams and percent of the initial body weight (on Day 1, when treatments began).
# [3] = test system: C57BL/6-Magel2 mice; test: Daily food intake of C57BL/6 Magel2 mice; conditions: for Food intake (food weights in g/day): mean
# Description: as §1, §2, §3, §4
# Daily food intake was calculated based on remaining food weight compared to food weight on the previous day using an Ohaus model CS 200 balance.
# [4] = Day 1, Magel2 (−/+) heterozygous male mice
# [5] = Day 1, Magel2 (−/−) homozygous female mice
# [6] = Day 2, Magel2 (−/+) heterozygous male mice
# [7] = Day 2, Magel2 (−/−) homozygous female mice
# [8] = Day 4, Magel2 (−/+) heterozygous male mice
# [9] = Day 4, Magel2 (−/−) homozygous female mice
# [10] = Day 6, Magel2 (−/+) heterozygous male mice
# [11] = Day 6, Magel2 (−/−) homozygous female mice
# [12] = Day 8, Magel2 (−/+) heterozygous male mice
# [13] = Day 8, Magel2 (−/−) homozygous female mice
# [14] = Day 10, Magel2 (−/+) heterozygous male mice
# [15] = Day 10, Magel2 (−/−) homozygous female mice
# [16] = Day 11, Magel2 (−/+) heterozygous male mice
# [17] = Day 11, Magel2 (−/−) homozygous female mice
# [18] = Day 13, Magel2 (−/+) heterozygous male mice
# [19] = Day 13, Magel2 (−/−) homozygous female mice
# [20] = Day 15, Magel2 (−/+) heterozygous male mice
# [21] = Day 15, Magel2 (−/−) homozygous female mice
# [22] = Day 17, Magel2 (−/+) heterozygous male mice
# [23] = Day 17, Magel2 (−/−) homozygous female mice
# [24] = Day 18, Magel2 (−/+) heterozygous male mice
# [25] = Day 18, Magel2 (−/−) homozygous female mice
# [26] = Day 20, Magel2 (−/+) heterozygous male mice
# [27] = Day 20, Magel2 (−/−) homozygous female mice
# [28] = Day 21, Magel2 (−/+) heterozygous male mice
# [29] = Day 21, Magel2 (−/−) homozygous female mice
structure (smiles),measurement,setting,value
CC1=C(O)C(=O)C=C2C1=CC=C1[C@@]2(C)CC[C@@]2(C)[C@@H]3C[C@](C)(C(=O)O)CC[C@]3(C)CC[C@]12C [Celastrol],Nestlet Shredding (percent of nestlet shredded),"[1]; Day 1, 12 hour",94.4%
same,Nestlet Shredding (percent of nestlet shredded),"[1]; Day 6, 12 hour",70.1%
same,Nestlet Shredding (percent of nestlet shredded),"[1]; Day 6, 24 hour",93.6%
same,Nestlet Shredding (percent of nestlet shredded),"[1]; Day 11, 12 hour",43.7%
same,Nestlet Shredding (percent of nestlet shredded),"[1]; Day 11, 24 hour",71.0%
same,Nestlet Shredding (percent of nestlet shredded),"[1]; Day 15, 12 hour",50.9%
same,Nestlet Shredding (percent of nestlet shredded),"[1]; Day 15, 24 hour",63.3%
same,Body weights (expressed as a percentage of day-1 weight),[2]; [4],100.0%
same,Body weights (in grams),[2]; [4],26.6 grams
same,Body weights (expressed as a percentage of day-1 weight),[2]; [5],100.0%
same,Body weights (in grams),[2]; [5],20.5 grams
same,Body weights (expressed as a percentage of day-1 weight),[2]; [6],99.6%
same,Body weights (in grams),[2]; [6],26.5 grams
same,Body weights (expressed as a percentage of day-1 weight),[2]; [7],101.2%
same,Body weights (in grams),[2]; [7],20.8 grams
same,Body weights (expressed as a percentage of day-1 weight),[2]; [8],101.1%
same,Body weights (in grams),[2]; [8],26.9 grams
same,Body weights (expressed as a percentage of day-1 weight),[2]; [9],105.6%
same,Body weights (in grams),[2]; [9],21.7 grams
same,Body weights (expressed as a percentage of day-1 weight),[2]; [10],99.4%
same,Body weights (in grams),[2]; [10],26.4 grams
same,Body weights (expressed as a percentage of day-1 weight),[2]; [11],107.1%
same,Body weights (in grams),[2]; [11],22.0 grams
same,Body weights (expressed as a percentage of day-1 weight),[2]; [12],101.3%
same,Body weights (in grams),[2]; [12],26.9 grams
same,Body weights (expressed as a percentage of day-1 weight),[2]; [13],106.2%
same,Body weights (in grams),[2]; [13],21.8 grams
same,Body weights (expressed as a percentage of day-1 weight),[2]; [14],96.4%
same,Body weights (in grams),[2]; [14],25.6 grams
same,Body weights (expressed as a percentage of day-1 weight),[2]; [15],100.9%
same,Body weights (in grams),[2]; [15],20.7 grams
same,Body weights (expressed as a percentage of day-1 weight),[2]; [16],94.4%
same,Body weights (in grams),[2]; [16],25.1 grams
same,Body weights (expressed as a percentage of day-1 weight),[2]; [17],95.6%
same,Body weights (in grams),[2]; [17],19.6 grams
same,Body weights (expressed as a percentage of day-1 weight),[2]; [18],94.2%
same,Body weights (in grams),[2]; [18],25.0 grams
same,Body weights (expressed as a percentage of day-1 weight),[2]; [19],93.5%
same,Body weights (in grams),[2]; [19],19.2 grams
same,Body weights (expressed as a percentage of day-1 weight),[2]; [20],93.9%
same,Body weights (in grams),[2]; [20],25.0 grams
same,Body weights (expressed as a percentage of day-1 weight),[2]; [21],95.0%
same,Body weights (in grams),[2]; [21],19.5 grams
same,Body weights (expressed as a percentage of day-1 weight),[2]; [22],85.0%
same,Body weights (in grams),[2]; [22],22.6 grams
same,Body weights (expressed as a percentage of day-1 weight),[2]; [23],85.3%
same,Body weights (in grams),[2]; [23],17.5 grams
same,Body weights (expressed as a percentage of day-1 weight),[2]; [24],83.0%
same,Body weights (in grams),[2]; [24],22.1 grams
same,Body weights (expressed as a percentage of day-1 weight),[2]; [25],85.6%
same,Body weights (in grams),[2]; [25],17.6 grams
same,Body weights (expressed as a percentage of day-1 weight),[2]; [26],84.5%
same,Body weights (in grams),[2]; [26],22.5 grams
same,Body weights (expressed as a percentage of day-1 weight),[2]; [27],88.8%
same,Body weights (in grams),[2]; [27],18.3 grams
same,Body weights (expressed as a percentage of day-1 weight),[2]; [28],83.8%
same,Body weights (in grams),[2]; [28],22.3 grams
same,Body weights (expressed as a percentage of day-1 weight),[2]; [29],89.6%
same,Body weights (in grams),[2]; [29],18.4 grams
same,body weight lost from day 1 to day 21,[2]; female homozygous Magel2 (−/−) mice,10.4%
same,body weight lost from day 1 to day 21,[2]; male heterozygous Magel2 (−/+) mice,16.2%
same,Food intake (food weights in g/day),"[3]; Day 1, Magel2 (−/+) heterozygous male mice, 0.2 mg/kg IP QD",6.6 g/day
same,Food intake (food weights in g/day),"[3]; Day 1, Magel2 (−/−) homozygous female mice, 0.2 mg/kg IP QD",5.9 g/day
same,Food intake (food weights in g/day),"[3]; Day 2, Magel2 (−/+) heterozygous male mice, 0.2 mg/kg IP QD",4.9 g/day
same,Food intake (food weights in g/day),"[3]; Day 2, Magel2 (−/−) homozygous female mice, 0.2 mg/kg IP QD",5.9 g/day
same,Food intake (food weights in g/day),"[3]; Day 4, Magel2 (−/+) heterozygous male mice, 0.2 mg/kg IP QD",7.0 g/day
same,Food intake (food weights in g/day),"[3]; Day 4, Magel2 (−/−) homozygous female mice, 0.2 mg/kg IP QD",6.4 g/day
same,Food intake (food weights in g/day),"[3]; Day 6, Magel2 (−/+) heterozygous male mice, 0.2 mg/kg IP QD",6.3 g/day
same,Food intake (food weights in g/day),"[3]; Day 6, Magel2 (−/−) homozygous female mice, 0.2 mg/kg IP QD",6.2 g/day
same,Food intake (food weights in g/day),"[3]; Day 8, Magel2 (−/+) heterozygous male mice, 0.2 mg/kg IP QD",5.2 g/day
same,Food intake (food weights in g/day),"[3]; Day 8, Magel2 (−/−) homozygous female mice, 0.2 mg/kg IP QD",4.6 g/day
same,Food intake (food weights in g/day),"[3]; Day 10, Magel2 (−/+) heterozygous male mice, 0.2 mg/kg IP QD",3.1 g/day
same,Food intake (food weights in g/day),"[3]; Day 10, Magel2 (−/−) homozygous female mice, 0.2 mg/kg IP QD",2.4 g/day
same,Food intake (food weights in g/day),"[3]; Day 11, Magel2 (−/+) heterozygous male mice, 0.2 mg/kg IP QD",3.9 g/day
same,Food intake (food weights in g/day),"[3]; Day 11, Magel2 (−/−) homozygous female mice, 0.2 mg/kg IP QD",1.4 g/day
same,Food intake (food weights in g/day),"[3]; Day 13, Magel2 (−/+) heterozygous male mice, 0.2 mg/kg IP QD",5.1 g/day
same,Food intake (food weights in g/day),"[3]; Day 13, Magel2 (−/−) homozygous female mice, 0.2 mg/kg IP QD",4.0 g/day
same,Food intake (food weights in g/day),"[3]; Day 15, Magel2 (−/+) heterozygous male mice, 0.2 mg/kg IP QD",5.9 g/day
same,Food intake (food weights in g/day),"[3]; Day 15, Magel2 (−/−) homozygous female mice, 0.2 mg/kg IP QD",5.2 g/day
same,Food intake (food weights in g/day),"[3]; Day 17, Magel2 (−/+) heterozygous male mice, 0.2 mg/kg IP QD",3.2 g/day
same,Food intake (food weights in g/day),"[3]; Day 17, Magel2 (−/−) homozygous female mice, 0.2 mg/kg IP QD",2.2 g/day
same,Food intake (food weights in g/day),"[3]; Day 18, Magel2 (−/+) heterozygous male mice, 0.2 mg/kg IP QD",2.5 g/day
same,Food intake (food weights in g/day),"[3]; Day 18, Magel2 (−/−) homozygous female mice, 0.2 mg/kg IP QD",3.2 g/day
same,Food intake (food weights in g/day),"[3]; Day 20, Magel2 (−/+) heterozygous male mice, 0.2 mg/kg IP QD",6.2 g/day
same,Food intake (food weights in g/day),"[3]; Day 20, Magel2 (−/−) homozygous female mice, 0.2 mg/kg IP QD",4.6 g/day
same,Food intake (food weights in g/day),"[3]; Day 21, Magel2 (−/+) heterozygous male mice, 0.2 mg/kg IP QD",5.0 g/day
same,Food intake (food weights in g/day),"[3]; Day 21, Magel2 (−/−) homozygous female mice, 0.2 mg/kg IP QD",11.1 g/day
same,Food intake (food weights in g/day),"[3]; Day −2 (before dosing), Magel2 (−/+) heterozygous male mice",5.0 g/day
same,Food intake (food weights in g/day),"[3]; Day −2 (before dosing), Magel2 (−/−) homozygous female mice",3.2 g/day
same,difference in food intake between the groups (in words),"[3]; treated Magel2 (−/+) and (−/−) groups versus vehicle, 0.2 mg/kg IP QD",not a significant difference in food intake

# Reference: patent US20260191807A1, “COMPOSITIONS AND METHODS FOR TREATMENT OF PRADER-WILLI SYNDROME” (ERX Pharmaceuticals Inc., priority 2022, published 2026)
